The record followed here is patent US20230285310A1, “COMPOSITIONS FOR THE DELIVERY OF PAYLOAD MOLECULES TO AIRWAY EPITHELIUM” (ModernaTX, Inc., priority 2020, published 2023).

Common to all, as to type: in vivo
Assay [1] has as its system respiratory epithelium. Description: LNP protein expression in rat after single dose of mRNA-LNP by nose-only aerosol delivery (anti-V5 IHC). To be noted: LNP per Example 8. From the text:
Aerosol is generated using a vibrating mesh nebulizer and a defined inlet air flow rate. Aerosol is introduced into the rodent nose-only directed flow exposure chamber by first passing through a mixing chamber before flowing into the exposure tier. Animals are exposed to fresh aerosol at each nose port, which is then exhausted out of the system.
Animals were trained to the nose-only dosing cones for three days prior to initiation of the study. On study day, animals were placed into the dosing cones that were then attached to the aerosol exposure chamber for designated exposure times of 60, 120 or 240 minutes per group for lung doses of 0.4, 0.6 and 1.1 mpk. Animals were monitored continuously throughout the entire exposure and subsequently for any observable adverse reactions. Aerosol concentration (mRNA) and aerodynamic particle size distribution were monitored at the dosing port before and after each dosing occasion to evaluate achieved dose levels and respirable aerosol particle size targets (1-4 μm for rat) respectively.
Trachea, lungs and for the aerosol study nasal cavities, nasopharynx and larynx are collected for analysis. Lungs are inflated with 10% NBF fixative and trachea tied off to maintain inflation. Lungs are removed en bloc with attached trachea, bronchi and lobes. Whole lungs en bloc are fixed in 10% NBF at room temperature for at least 24 hours with a maximum of 48 hours and then removed from fixative and placed in PBS. Samples are immediately sent to be processed for paraffin 5-micron sections and H&E staining.
For the aerosol study, nasal cavities, nasopharynx and larynx were also collected in addition to trachea and lungs.
IHC was performed on FFPE sections using the Leica Bond RX autostainer. NPI-Luc protein expression was detected by anti-V5 tag antibody at a 1:100 dilution. V5 antibody was detected with the Bond Polymer Refine Detection kit followed by hematoxylin and bluing reagent counterstain. Images were imaged at 20× magnification with the Panoramic 250 Flash III whole slide scanner. Image analysis was completed with Indica Labs HALO image analysis software. Trachea, lung and/or nasal cavity images were analyzed to capture total tracheal, bronchial or nasal epithelial cells and data expressed when appropriate as p % V5 positive epithelial cells per total epithelial cells per animal.
LNPs were prepared according to Example 8 using NPI-Luc as the mRNA construct. LNPs were delivered to rats by aerosol delivery using a nose-only aerosol dosing system. LNP protein expression in respiratory epithelium was evaluated according to sample collection and assay procedures A and B. The results are shown in Table 13c. Respiratory epithelium in the nasal cavity, trachea and bronchi were positive for protein expression after aerosol delivery of LNPs.

Assay [2] has as its system respiratory epithelium. As to the kind of experiment: LNP protein expression in mouse after single dose of mRNA-LNP by intratracheal delivery (anti-V5 IHC). To be noted: intratracheal instillation, ~0.7 mpk, NPI-Luc mRNA, core with β-sitosterol for SA23, SA31. The procedure: (§1) Animals are anesthetized under isoflurane. The tongue is displaced and a small diameter cannula is inserted into the trachea (oropharyngeal route). The cannula tip is passed through the vocal chords, down the trachea so that the tip is very near, but not touching, the carina. Upon placement, 50 μL (mouse) or 200 μL (rat) of formulation is infused into the lungs. After 30 seconds upright, animals are released into a recovery cage and returned to their respective cages once recovered. Trachea, lungs and for the aerosol study nasal cavities, nasopharynx and larynx are collected for analysis. Lungs are inflated with 10% NBF fixative and trachea tied off to maintain inflation. Lungs are removed en bloc with attached trachea, bronchi and lobes. Whole lungs en bloc are fixed in 10% NBF at room temperature for at least 24 hours with a maximum of 48 hours and then removed from fixative and placed in PBS. Samples are immediately sent to be processed for paraffin 5-micron sections and H&E staining. IHC was performed on FFPE sections using the Leica Bond RX autostainer. […] Images were imaged at 20× magnification with the Panoramic 250 Flash III whole slide scanner. Image analysis was completed with Indica Labs HALO image analysis software. […] LNPs were prepared according to Example 2 using NPI-Luc as the mRNA construct. LNPs were delivered to mice by intratracheal instillation for a dose of ˜0.7 mpk. LNP protein expression in respiratory epithelium was evaluated according to sample collection and assay procedures A and B. The results are shown in Table 13a.

Assay [3] deals with respiratory epithelium. Description: LNP protein expression in rat after single dose of mRNA-LNP by intratracheal delivery (anti-V5 IHC). To be noted: intratracheal instillation, ~1.2 mpk, NPI-Luc mRNA, core with β-sitosterol for SA23. The procedure: as §1, with “LNPs were delivered to mice by intratracheal instillation for a dose of ˜0.7 mpk.” left out, “13b.” for “13a.”

Where a name gives a salt, the structure may show the parent alone.

`CC(C)CCC[C@@H](C)[C@H]1CC[C@H]2[C@@H]3CC=C4C[C@@H](OC(=O)N(CCCN)CCCCNCCCN)CC[C@]4(C)[C@H]3CC[C@]12C` [SA3, (3S,8S,9S,10R,13R,14S,17R)-10,13-dimethyl-17-((R)-6-methylheptan-2-yl)-2,3,4,7,8,9,10,11,12,13,14,15,16,17-tetradecahydro-1H-cyclopenta[a]phenanthren-3-yl (3-aminopropyl)(4-((3-aminopropyl)amino)butyl)carbamate, trihydrochloride salt]: the “Average % V5 positive cells/total cells” value was 0.13% with respiratory epithelium [1] (Rat Bronchi (left and right lung), lung dose 0.4 mpk); 0.13% in the assay on respiratory epithelium [1] (Rat Bronchi (left and right lung), lung dose 0.6 mpk); 0.46% in the assay with respiratory epithelium [1] (Rat Bronchi (left and right lung), lung dose 1.1 mpk); 0.64% in the assay with respiratory epithelium [1] (Rat Nasal Cavity, lung dose 0.4 mpk); 1.20% in the assay with respiratory epithelium [1] (Rat Nasal Cavity, lung dose 0.6 mpk); 2.84% in the assay with respiratory epithelium [1] (Rat Nasal Cavity, lung dose 1.1 mpk). In addition, the “Average % V5 positive cells/total cells” value in the assay with respiratory epithelium [1] (Rat Trachea, lung dose 0.4 mpk) is listed as 0.29%; in the assay on respiratory epithelium [1] (Rat Trachea, lung dose 0.6 mpk) it was 0.16%; in the assay on respiratory epithelium [1] (Rat Trachea, lung dose 1.1 mpk) it was 0.65%; with respiratory epithelium [2] (Mouse Bronchi (left lung)), 9.33%; with respiratory epithelium [2] (Mouse Trachea), 40.7%; with respiratory epithelium [3] (Rat Bronchi (left and right lung)), 4.95%. For the same molecule, in the assay with respiratory epithelium [3] (Rat Trachea), the “Average % V5 positive cells/total cells” value was 2.97%.
